Results taken from patent US7115592B2, “Phosphonate substituted pyrimidine compounds and methods for therapy” (priority 2003, dated 2006).
≈ marks a conversion by molar mass, not a printed value. Marks after values point to notes of the source that are not given here.

Key:
HIV = assay: microbe, parasite or virus in culture; assay type: cell-based; conditions: for EC50: Human immunodeficiency virus 1, HIV type not specified, read-out: inhibitory against HIV at
MSV = assay: Antiviral activity against MSV in cell culture; assay type: cell-based, murine (MSV); conditions: Mus musculus; in vitro; read-out: inhibitory against MSV (EC50)
[1] = test system: MSV-induced tumor cell formation; assay: Inhibitory activity against MSV-induced tumor cell formation in newborn NMRI mice; assay type: in vivo; conditions: for Mean day of animal death / Mean day of tumor initiation / % survivors on day 12 / % tumor free on day 12: virus i.m. at day 1; for order of antiviral efficacy: among the 5-cyano, 5-chloro and 5-methyl derivatives; for tumor formation: at 50 and 20 mg/kg
Description: The 5-cyano (Example 8), 5-methyl (Example 5) and 5-chloro-2,4-diamino-6-[2-(phosphonomethoxy)ethoxy]pyrimidine were also evaluated for their antiretroviral activity in MSV-infected newborn NMRI mice in comparison with PMEA and (R)-PMPA. […] At 5 mg/kg, 90% of mice were free from tumor formation in the presence of 5-methyl derivative, compared with 70% and 10% in the presence of PMEA and (R)-PMPA. […] This phenomenon was also seen with PMEA at 50 and 20 mg/kg, but not with (R)-PMPA at 50 mg/kg.
Inhibitory activity of test compounds against MSV-induced tumor cell formation in newborn NMRI mice

HIV-1 = assay: microbe, parasite or virus in culture; assay type: cell-based; conditions: Human immunodeficiency virus 1; read-out: EC50 against HIV-1
HIV-2 = assay: microbe, parasite or virus in culture; assay type: cell-based; conditions: Human immunodeficiency virus 2; read-out: EC50 against HIV-2
VZV = assay: Anti-VZV activity; assay type: cell-based
[2] = Cytostatic activity in CEM cell cultures; conditions: human

melting point	SMILES	Mean day of animal death ([1]; 5 mg/kg i.p. at days 1-5) [days]	Mean day of tumor initiation ([1]; 5 mg/kg i.p. at days 1-5) [days]	% survivors on day 12 ([1]; 20 mg/kg i.p. at days 1-5)	Mean day of animal death ([1]; 20 mg/kg i.p. at days 1-5) [days]	Mean day of tumor initiation ([1]; 20 mg/kg i.p. at days 1-5) [days]	Mean day of animal death ([1]; 50 mg/kg i.p. at days 1-5)	Mean day of tumor initiation ([1]; 50 mg/kg i.p. at days 1-5) [days]	also measured
	N#Cc1c(N)nc(N)nc1OCCOCP(=O)(O)O [Example 8, 5-Cyano-2,4-diamino-6-[2-(phosphonomethoxy)ethoxy]pyrimidine]	10.9 ± 0.57	6.40 ± 0.70	(60%)	11.5 ± 0.58	7.20 ± 1.03	> 12 days	8.20 ± 1.62	EC50 (HIV): 0.8 to 3.3 µg/mL (≈ 2.77 to 11.4 µM); EC50 (MSV): 2.7 to 6 µg/mL (≈ 9.34 to 20.7 µM); % survivors on day 12 ([1]; 50 mg/kg i.p. at days 1-5): 100%; order of antiviral efficacy [1]: least effective agent
255 to 256 °C	Nc1nc(N)c(C2CC2)c(OCCOCP(=O)(O)O)n1								
	Nc1cc(OCCOCP(=O)(O)O)nc(N)n1 [5-unsubstituted compound, 2,4-diamino-6-[2-(phosphonomethoxy)ethoxy]pyrimidine, reference compound]								anti-HIV activity less potent than anti-MSV activity (HIV; ratio of anti-HIV to anti-MSV potency): 20 fold
258 to 259 °C (dec.)	N#CCc1c(N)nc(N)nc1OCCOCP(=O)(O)O								
	Cc1c(N)nc(N)nc1OCCOCP(=O)(O)O [Example 5, 5-Methyl-2,4-diamino-6-[2-(phosphonomethoxy)ethoxy]pyrimidine]	> 12	8.0	100%	> 12	> 12	10.1 ± 1.10^b day	> 12	EC50 (HIV-1): 0.065 µg/mL (≈ 0.234 µM); EC50 (HIV-2): 0.065 µg/mL (≈ 0.234 µM); EC50 (MSV): 0.04 to 0.06 µg/mL (≈ 0.144 to 0.216 µM); anti-VZV activity (VZV): moderate anti-VZV activity; % survivors on day 12 ([1]; 5 mg/kg i.p. at days 1-5): 100%; % tumor free on day 12 ([1]; 5 mg/kg i.p. at days 1-5): 90%; % tumor free on day 12 ([1]; 20 mg/kg i.p. at days 1-5): 100%; % tumor free on day 12 ([1]; 50 mg/kg i.p. at days 1-5): 100%; Mean day of animal death ([1]; 50 mg/kg i.p. at days 1-5, listed as 5-methyl-2,4-diamino-6-[2-(phosphonomethoxy)ethoxy]pyrimidine): 10.1 days; order of antiviral efficacy [1]: most effective agent; tumor formation [1]: completely prevented; CC50 [2]: 1.3 to 4.1 µg/mL (≈ 4.67 to 14.7 µM)
	Nc1nc(N)c(Cl)c(OCCOCP(=O)(O)O)n1 [Example 5-Cl, 5-chloro-2,4-diamino-6-[2-(phosphonomethoxy)ethoxy]pyrimidine]	11.5 ± 0.69	6.70 ± 0.80	(80%)	11.8 ± 0.50	7.44 ± 1.42	> 12 days	8.76 ± 1.86	% survivors on day 12 ([1]; 5 mg/kg i.p. at days 1-5): (45%); % tumor free on day 12 ([1]; 20 mg/kg i.p. at days 1-5): 10%; % survivors on day 12 ([1]; 50 mg/kg i.p. at days 1-5): 100%; % tumor free on day 12 ([1]; 50 mg/kg i.p. at days 1-5): 15%
230 to 231 °C	Nc1nc(N)c(-c2ccccc2)c(OCCOCP(=O)(O)O)n1 (hydrate or solvate)								
199 to 200 °C	CCOC(=O)Cc1c(N)nc(N)nc1OCCOCP(=O)(O)O								
	Nc1ncnc2c1ncn2CCOCP(=O)(O)O [PMEA, 9-(2-phosphonylmethoxyethyl)adenine]	> 12	9.33 ± 0.58	90%	9.0	> 12	8.80 ± 0.63^b day	> 12	% survivors on day 12 ([1]; 5 mg/kg i.p. at days 1-5): 100%; % tumor free on day 12 ([1]; 5 mg/kg i.p. at days 1-5): 70%; % tumor free on day 12 ([1]; 20 mg/kg i.p. at days 1-5): 100%; % tumor free on day 12 ([1]; 50 mg/kg i.p. at days 1-5): 100%; tumor formation [1]: completely prevented; CC50 [2]: 11 µg/mL (≈ 40.3 µM)
	Nc1nc(N)c(C=O)c(OCCOCP(=O)(O)O)n1 [Example 9, 5-Formyl-2,4-diamino-6-[2-(phosphonomethoxy)ethoxy]pyrimidine]								EC50 (HIV): 0.8 to 3.3 µg/mL (≈ 2.74 to 11.3 µM); EC50 (MSV): 2.7 to 6 µg/mL (≈ 9.24 to 20.5 µM)
241 to 242 °C	Nc1nc(N)c(Cc2ccccc2)c(OCCOCP(=O)(O)O)n1 (hydrate or solvate)								
228 to 229 °C	Nc1nc(N)c(CC(=O)O)c(OCCOCP(=O)(O)O)n1 (hydrate or solvate)								
	C[C@H](Cn1cnc2c(N)ncnc21)OCP(=O)(O)O [(R)-PMPA]	> 12	10.5 ± 2.12	100%	> 12	> 12	> 12 days	> 12	% survivors on day 12 ([1]; 5 mg/kg i.p. at days 1-5): 100%; % tumor free on day 12 ([1]; 5 mg/kg i.p. at days 1-5): 10%; % tumor free on day 12 ([1]; 20 mg/kg i.p. at days 1-5): 100%; % survivors on day 12 ([1]; 50 mg/kg i.p. at days 1-5): 100%; % tumor free on day 12 ([1]; 50 mg/kg i.p. at days 1-5): 100%; tumor formation [1]: completely prevented

SMILES	melting point	Mean day of animal death ([1]; 5 mg/kg i.p. at days 1-5) [days]	Mean day of tumor initiation ([1]; 5 mg/kg i.p. at days 1-5) [days]	% survivors on day 12 ([1]; 20 mg/kg i.p. at days 1-5)	Mean day of animal death ([1]; 20 mg/kg i.p. at days 1-5) [days]	Mean day of tumor initiation ([1]; 20 mg/kg i.p. at days 1-5) [days]	Mean day of animal death ([1]; 50 mg/kg i.p. at days 1-5)	Mean day of tumor initiation ([1]; 50 mg/kg i.p. at days 1-5) [days]	also measured
Nc1nc(N)c(C=O)c(OCCOCP(=O)(O)O)n1 (hydrate or solvate) [Example 9, 5-Formyl-2,4-diamino-6-[2-(phosphonomethoxy)ethoxy]pyrimidine]	225 to 227 °C								
